Experimental data taken from US20230203004A1, “RSV INHIBITING 3-SUBSTITUTED QUINOLINE AND CINNOLINE DERIVATIVES” (Janssen Sciences Ireland Unlimited Company, priority 2020, published 2023).
pEC50: −log10 of the molar value.

Assays:
rgRSV224 virus = experiment: Antiviral activity: rgRSV224 (GFP) replication in HeLa cells; assay type: cell-based, respiratory syncytial virus (RSV); settings: read-out: RSV HELA EC50; HeLa cells, rgRSV224 MOI = 1, GFP expression three days post-virus exposure; averaged data of several repeat experiments
Procedure, shortened: (§1)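 HeLa cells infected with GFP-expressing rgRSV224 at MOI 1 in RPMI/10% FBS, 0.05% DMSO, with 9 serial 4-fold compound dilutions; 3 days at 37 °C, GFP read by laser microscopy for EC50. Cytotoxicity: uninfected HeLa cells, 3 days, cellular ATP (ATPlite) for CC50.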

HeLa cells = experiment: Cytotoxicity in HeLa cells (ATP content, ATPlite kit); assay type: cell-based; settings: human, 3 days
Procedure, shortened: as §1

| Structure (SMILES) | pEC50 (rgRSV224 virus) | CC50 (HeLa cells) [µM] |
| --- | --- | --- |
| Cc1cc2cc(C(=O)NC[C@](O)(c3cc(C(C)(C)O)c(F)c(-c4ccc(F)cc4)n3)C3(F)CC3)cc(OC3CC3)c2nn1 [compound 317, (-)Cyclopropoxy-N-(2-(5-Fluoro-6-(4-Fluorophenyl)-4-(2-Hydroxypropan-2-yl)Pyridin-2-yl)-2-(1-Fluorocyclopropyl)-2-Hydroxyethyl)-3-Methylcinnoline-6-Carboxamide] | 9.06 | 29 |
| Cc1cc2cc(C(=O)NC[C@](O)(c3cc(C(C)(C)O)c(F)c(-c4ccc(F)cc4)n3)C3(F)CC3)cc(OC3CC3)c2nn1 [compound 335, (-)Cyclopropoxy-N-(2-(5-Fluoro-6-(4-Fluorophenyl)-4-(2-Hydroxypropan-2-yl)Pyridin-2-yl)-2-(1-Fluorocyclopropyl)-2-Hydroxyethyl)-3-Methylcinnoline-6-Carboxamide] | 7.68 | ~14 |
